Results taken from patent publication US9056835B2, “LPA2 receptor-specific benzoic acid derivatives” (University of Tennessee Research Foundation, priority 2012, dated 2015).

What was measured:
LPA2 [1] = biological target: T1, LPA2 (Homo sapiens, UniProt Q9HBW0); assay: LPA receptor-mediated Ca2+ mobilization assay, LPA2 (RH7777 cells stably expressing LPA2); type: cell-based; parameters: expressed in transfected cells; details: Ca2+ transients, RH7777 cells stably expressing LPA2; for EC50: read-out: EC50 (μM) (RH7777)
Experimental: Similarity searches were performed separately using each fingerprint to quantitate similarity. Hits meeting the 80% similarity threshold from each search were ranked based on the Tanimoto coefficient measure of similarity to a target molecule NSC12404, and the top 75 unique hits from each fingerprint search were selected for further analysis. […] This selected a diverse subset of 27 compounds for biological evaluation by choosing the middle compounds in each cluster. These 27 compounds were tested in Ca^2+ mobilization assays at a concentration of 10 μM using stable cell lines individually expressing LPA2 and also in vector-transfected control cells. Hits activating LPA2 were further tested using cells expressing the other established and putative LPA GPCRs. […] They arbitrarily selected GRI977143 for further characterization in cell-based assays.
The newly-synthesized compounds were tested for their ability to induce Ca^2+ transients in RH7777 cells stably expressing the LPA2 receptor.
The cells were loaded with Fura-2-acetoxymethyl esther (Fura-2/AM) in Krebs buffer containing 0.01% pluronic acid for 30 min and rinsed with Krebs buffer before measuring Ca^2+ mobilization. The ratio of peak emissions at 510 nm after 2 min of ligand addition was determined for excitation wavelengths of 340 nm/380 nm. All samples were run in quadruplicate. […] The half maximally effective concentration (EC50), and inhibitory constant (Ki) values were calculated by fitting a sigmoid function to dose-response data points using KaleidaGraph software (version 4.1, Synergy Software; […]).
Mouse embryonic fibroblast (MEF) cells were isolated from E13.5 LPA1&2 double knockout (DKO) embryos. MEFs were transduced with empty vector or LPA2-containing lentiviruses and selected with 1.5 μg/ml puromycin. Cells were maintained in Dulbecco's modified Eagle medium (DMEM) supplemented with 10% (V/V) fetal bovine serum (FBS), 2 mM L-glutamine, 100 U/mL penicillin, and 100 μg/mL streptomycin. Serum-free medium contained 0.1% (W/V) BSA in DMEM. The rat intestinal epithelial cell line 6 (IEC-6) was obtained from the American Type Culture Collection (Rockville, Md.) at passage 13; passages 16-21 were used in all experiments. IEC-6 cells were maintained in a humidified 37° C. incubator in an atmosphere of 90% air and 10% CO2. Growth medium consisted of DMEM supplemented with 5% heat inactivated FBS, 10 μg/mL insulin, and 50 μg/mL gentamycin. The composition of the serum-starvation medium was the same as that of the full growth medium except that it contained no FBS. The McArdle rat hepatoma cell line (RH7777) stably expressing LPA2 receptors was a gift from Dr. Fumikazu Okajima (Gunma University, Maebashi, Japan). RH7777 cells stably expressing LPA1 or LPA3 receptors were generated in-house and had been characterized earlier. Wild type and LPA receptor (LPAR) stably transfected RH7777 cells were grown in DMEM supplemented with 10% FBS and 2 mM L-glutamine in the presence of 250 μg/ml G418. Chinese hamster ovary (CHO) cells stably expressing either vector or LPA4 receptor were a kind gift from Dr. Takao Shimizu (Tokyo University; Tokyo, Japan). Cells were cultured in Ham's F12 medium containing 10% FBS, 2 mM L-glutamine, and 350 μg/ml G418. Rat neuroblastoma cells (B103) were transduced with the lentivirus harboring wild type of FLAG-LPA5 and selected with puromycin to establish the stable cell lines. The stable cells were maintained in DMEM supplemented with 10% FBS and 0.4 μg/ml puromycin. GPR87- and P2Y10-expressing CHO cells and vector-transfected control cells were a gift from Dr. Norihisha Fujita (Ritsumeikan University; Shiga, Japan). The highly invasive MM1 rat hepatoma cells (gift from Dr. Michiko Mukai, Osaka University, Japan) were grown in suspension in DMEM supplemented with 10% (V/V) FBS, 2 mM L-glutamine, 100 U/mL penicillin, and 100 μg/mL streptomycin.

LPA2 DKO MEF cells [2] = assay: Adriamycin-induced caspase 3/7 activation in LPA2 DKO MEF and EV DKO MEF cells; type: cell-based, mouse; details: 1-3 μM, 1 h before Adriamycin
Experimental: (§1) Mouse embryonic fibroblast (MEF) cells used in this study isolated from LPA1/2 double knock out (LPA2-DKO) mice {Lin, 2007 #132}. These MEF express LPA4/5/6 receptors endogenously at lower levels but completely lack LPA1/2/3 receptor subtypes. The human LPA2 receptor was reintroduced into these MEF cells by lentiviral transduction, which are designated LPA2 DKO MEF {Lin, 2007 #132}. Empty vector-transduced MEF cells, designates as EV DKO MEF, were used as a control. Cells were cultured in a DMEM supplemented with 10% v/v fetal bovine serum (FBS), 2 mM L-glutamine, 100 U/ml penicillin, and 100 μg/mL streptomycin. During serum starvation, the growth medium was replaced with DMEM containing 0.1% (w/v) BSA.
(§2) The cells were plated in 48 well plates (2×10^4 cells/well) and cultured overnight in full growth medium. Next morning the growth medium was replaced by serum-free starvation medium and cells were pretreated for 1 hour with LPA (1 or 3 μM), compound 5b or 7b (1, 3 or 10 μM). Apoptosis was elicited by 1.7 μM Adriamycin in vector and LPA2 transduced MEF cells. Caspase 3, 7, 8, 9 activity and DNA fragmentation were measured to assess apoptosis 5 h after Adriamycin exposure.
To measure caspase activation the cells were lysed in 50 μl Caspase-Glow® reagent (Caspase 3/7, 8, 9 Promega, Madison, Wis.). The cells were shaken with the caspase reagent for 30 min at room temperature (RT). After 30 min, the luminescence was measured using a BioTek (Winooski, Vt.) plate reader. The mean caspase activity in triplicates/experimental group±SD was calculated. LPA was used as a positive control in all experiments.

C57BL/6 mice = assay: Radiation-induced mortality, 15.68 Gy PBI-BM5; type: in vivo, mouse; details: 15.68 Gy PBI-BM5, single 1 mg/kg s.c. 24 h after irradiation
Experimental: 10-week old female C57BL/6 mice were exposed to a 15.68 Gy (˜LD60/8-10) dose of γ-irradiation from a ^137Cs Source. Twenty four hours after irradiation mice were treated with a single 200 μL subcutaneous injection of 1 mg/kg of the test compounds 5b, 7a, and 7b dissolved in 0.8% DMSO, 1% ethanol, 2% propanediol in PBS buffer. The animals were observed daily and provided with food and water ad libitum. Form day four onward the mice also were provided with a gel food diet. The study endpoint was mortality by day 20.

LPA2 DKO MEF cells [3] = assay: Adriamycin-induced DNA fragmentation in LPA2 DKO MEF and EV DKO MEF cells; type: cell-based, mouse
Experimental: as §1, §2
DNA fragmentation was quantified by using the Cell Death Detection ELISA assay kit (Roche Diagnostics, Penzberg, Germany). 20 μl cell lysate was incubated with the anti-histone-biotin anti-DNA-peroxidase-conjugated antibody in a 96-well streptavidin-coated plate with shaking at RT for 2 h. After washing the wells three-times with the incubation buffer, 100 μl/well 2,2′-azino-di(3-ethylbenzthiazolin-sulfonate) substrate was added and the absorbance was measured at 405 nm. Protein concentration was measured using BCA Protein Assay Kit (Thermo Fisher Scientific Inc., Rockford, Ill.). DNA fragmentation was expressed as absorbance units/mg protein. LPA was used as a positive control in all experiments.

LPA2 [4] = biological target: T1, LPA2; assay: Fura-2AM Ca2+ mobilization in LPA2 DKO MEF cells; type: cell-based; parameters: expressed in transfected cells; host or cells: mouse embryonic fibroblasts from LPA1/2 double-knockout mice, lentiviral transduction; details: for EC50: DKO MEF; for Emax: MEF
Experimental: (§3) Fluorescence was read every 3.42 seconds for a total of 70 seconds at Ex/Emλ of 340/510 nm and 380/510 nm. Data (relative fluorescence) was then recorded as a mean fluorescence ratio value of the triplicates for each concentration. Graph Pad Prism version 5.0a was then used to fit a non-linear regression curve in a variable slope model (A) to determine the EC50, Emax, and curve fit (R^2)(B).
as §1, §3

T1 sequence (Q9HBW0 whole entry): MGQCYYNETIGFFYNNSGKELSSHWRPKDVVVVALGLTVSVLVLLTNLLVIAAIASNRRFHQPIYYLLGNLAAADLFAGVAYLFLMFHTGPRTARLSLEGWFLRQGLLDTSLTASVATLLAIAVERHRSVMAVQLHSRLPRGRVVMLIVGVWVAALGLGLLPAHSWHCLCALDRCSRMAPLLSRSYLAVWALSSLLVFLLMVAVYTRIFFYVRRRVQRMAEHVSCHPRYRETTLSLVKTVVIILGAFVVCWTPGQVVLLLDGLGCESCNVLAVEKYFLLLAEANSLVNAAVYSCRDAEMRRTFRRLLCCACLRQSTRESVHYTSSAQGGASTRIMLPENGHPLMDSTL

Row | SMILES | Emax (LPA2 [1]) | EC50 (LPA2 [1]) | caspase-3/7 activation (apoptosis) (LPA2 DKO MEF cells [2]; EV DKO MEF) | caspase-3/7 activation (apoptosis) (LPA2 DKO MEF cells [2]; LPA2 DKO MEF) | mortality by day 20 (C57BL/6 mice) | protection from DNA fragmentation (LPA2 DKO MEF cells [3]; EV DKO MEF cells) | reduction of DNA fragmentation (LPA2 DKO MEF cells [3]; LPA2 DKO MEF, 10 μM, 60 min pretreatment, Adriamycin) | protection from Adriamycin induced DNA fragmentation (LPA2 DKO MEF cells [3]; LPA2 transduced cells, 3 μM) | EC50 (LPA2 [4]) | Emax (LPA2 [4])
1 | O=C(O)c1ccc2c(c1)S(=O)(=O)N(CCCCN1C(=O)c3cccc4cccc(c34)C1=O)C2=O [Compound 9, 2-(4-(1,3-dioxo-1H-benzo[de]isoquinolin-2(3H)-yl)butyl)-3-oxo-2,3-dihydrobenzo[d]isothiazole-6-carboxylic acid 1,1-dioxide] | 75% | 3.6 µM | – | – | – | – | – | – | – | –
2 | O=C(O)c1ccccc1S(=O)(=O)NCCCN1C(=O)c2cccc3cccc(c23)C1=O [Compound 5a, 2-[3-(1,3-Dioxo-1H,3H-benzo[de]isoquinolin-2-yl)propylsulfamoyl]benzoic acid] | – | 2.2 µM | not in EV DKO MEF cells | significantly reduced apoptosis | significantly reduced mortality | no protection | ~50% | selectively protected | – | –
3 | O=C(O)c1ccccc1S(=O)(=O)NCCCCCN1C(=O)c2cccc3cccc(c23)C1=O [Compound 5c] | 100% | 1.2 µM | – | – | – | – | – | – | – | –
4 | O=C(O)c1ccc(Br)cc1S(=O)(=O)NCCCCN1C(=O)c2cccc3cccc(c23)C1=O [Compound 7b, 4-bromo-2-(N-(4-(1,3-dioxo-1H-benzo[de]isoquinolin-2(3H)-yl)butyl)sulfamoyl) benzoic acid] | 100% | 1 µM | not in EV DKO MEF cells | significantly reduced apoptosis | ineffective | – | – | – | 0.4 µM | 100%
5 | COc1ccc(C(=O)O)c(S(=O)(=O)NCCCCN2C(=O)c3cccc4cccc(c34)C2=O)c1 [Compound 7c, 2-(N-(4-(1,3-dioxo-1H-benzo[de]isoquinolin-2(3H)-yl)butyl)sulfamoyl)-4-methoxybenzoic acid] | – | > 10 µM | – | – | – | – | – | – | – | –
6 | O=C(O)c1ccccc1S(=O)(=O)NCCCCN1C(=O)c2cccc3cccc(c23)C1=O [Compound 5b, 2-[4-(1,3-Dioxo-1H,3H-benzo[de]isoquinolin-2-yl)butylsulfamoyl]benzoic acid] | 100% | 0.5 µM | – | – | – | – | – | – | 0.5 µM | 100%
7 | O=C(O)c1ccc([N+](=O)[O-])cc1S(=O)(=O)NCCCCN1C(=O)c2cccc3cccc(c23)C1=O [Compound 7a, 2-(N-(4-(1,3-dioxo-1H-benzo[de]isoquinolin-2(3H)-yl)butyl)sulfamoyl)-4-nitrobenzoic acid] | – | > 10 µM | – | – | significantly reduced mortality | – | – | – | > 10 µM | –
